The source of these data is patent US4309428A, “Maytansinoids” (Takeda Chemical Industries, Ltd., priority 1979, dated 1982).

Each structure is given as a SMILES string. Converted amounts (≈) assume the structure as drawn. Where two headings read alike, the source gives them in different places. Bounds are passed on as bounds.

In one experiment the test system is Tetrahymena pyriformis W. As to the kind of experiment: Antiprotozoal activity, serial dilution method. The class given is cell-based. Here is the method:
Antiprotozoal activity of compound (I) was assayed with Tetrahymena pyriformis W as the test organism and a medium composed of 20 g tryptose-peptone (Difco Co.), 1 g yeast extract, 2 g glucose, 1000 ml distilled water, 10 ml 1 M phosphate buffer (pH 7.0) as the assay medium. The microorganism was incubated at 28° C. for 44 to 48 hours and the growth inhibitory activity of compound (I) was assayed by the serial dilution method.

Experiment [1] relates to melanoma B-16 tumor cells. As to the kind of experiment: Antitumor activity: life span prolongation in mice with intraperitoneally transplanted melanoma B-16 (NCI protocol). The class given is in vivo. The conditions noted are these: intraperitoneally once daily for 9 days. The procedure:
Therapeutic tests were carried out in mice according to NCI-protocol 1,300, Cancer Chemother, Reports, Part 3, 1972, Vol. 3, No. 2, in which melanoma B-16 tumor cells had been intraperitoneally transplanted, compound (I) being administered intraperitoneally once daily for 9 consecutive days.

The mark [2] stands for this setting: 28° C., 44 to 48 hours, pH 7.0, read-out: Antiprotozoal activity MIC.

In general, MIC refers to the least concentration at which growth counts as inhibited. For the compound `C=CCOc1cc2cc(c1Cl)N(C)C(=O)CC(OC(=O)C(C)C)C1(C)OC1C(C)C1CC(O)(NC(=O)O1)C(OC)C=CC=C(C)C2` (centres unmarked) [C20 -allyl ether, PDM-3-C20-allyl ether], in the experiment on Tetrahymena pyriformis W (setting [2]), the MIC was no more than 1 µg/mL.
Regarding `CCOc1cc2cc(c1Cl)N(C)C(=O)CC(OC(=O)C(C)C)C1(C)OC1C(C)C1CC(O)(NC(=O)O1)C(OC)C=CC=C(C)C2` (centres unmarked) [C20 -ethoxy ether, PDM-3-C20-ethyl ether], the MIC with Tetrahymena pyriformis W (pH 7, read-out: Antiprotozoal activity MIC) is no more than 1 µg/mL.
On to `CCOC(=O)COc1cc2cc(c1Cl)N(C)C(=O)CC(OC(=O)C(C)C)C1(C)OC1C(C)C1CC(O)(NC(=O)O1)C(OC)C=CC=C(C)C2` (centres unmarked) [C20 -ethoxycarbonylmethyl ether, PDM-3-C20-ethoxycarbonylmethyl ether], for which the MIC in the experiment with Tetrahymena pyriformis W (setting [2]) lay within 1 to 2 µg/mL (≈ 1.41 to 2.83 µM).
In the case of `CCOC(=O)CC(=O)COc1cc2cc(c1Cl)N(C)C(=O)CC(OC(=O)C(C)C)C1(C)OC1C(C)C1CC(O)(NC(=O)O1)C(OC)C=CC=C(C)C2` (centres unmarked) [C20 -γ-ethoxycarbonylacetonyl ether, PDM-3-C20 -γ-ethoxycarbonylacetonyl ether], the MIC in the experiment with Tetrahymena pyriformis W (setting [2]) stood at 4 µg/mL (≈ 5.34 µM).
As to `CCOCCOCCOc1cc2cc(c1Cl)N(C)C(=O)CC(OC(=O)C(C)C)C1(C)OC1C(C)C1CC(O)(NC(=O)O1)C(OC)C=CC=C(C)C2` (centres unmarked) [C20-2-(2-ethoxyethoxy)ethyl ether, PDM-3-C20-2-(2-ethoxyethoxy)ethyl ether], the MIC in the experiment with Tetrahymena pyriformis W (setting [2]) came out at 2 µg/mL (≈ 2.71 µM).
On the same count and under the same terms, under `COC1C=CC=C(C)Cc2cc(OCC(=NNC(=O)c3ccncc3)c3ccccc3)c(Cl)c(c2)N(C)C(=O)CC(OC(=O)C(C)C)C2(C)OC2C(C)C2CC1(O)NC(=O)O2` (centres unmarked) [PDM-3-C20-(2-isonicotinoylhydrazono-2-phenyl)ethyl ether] stands 2 to 4 µg/mL (≈ 2.33 to 4.66 µM).
`CCOC(COc1cc2cc(c1Cl)N(C)C(=O)CC(OC(=O)C(C)C)C1(C)OC1C(C)C1CC(O)(NC(=O)O1)C(OC)C=CC=C(C)C2)OCC` (stereo not drawn) [PDM-3-C20-(β,β-diethoxy)ethyl ether, PDM-3-C20 -β,β-diethoxyethyl ether]: the “Antitumor activities B-16 (T/C %)” value in experiment [1] (25 μg/kg) came to 194%; in experiment [1] (50 μg/kg), 211%; in experiment [1] (100 μg/kg), 240%.
In the case of `COC1C=CC=C(C)Cc2cc(OCc3ccccc3)c(Cl)c(c2)N(C)C(=O)CC(OC(=O)C(C)C)C2(C)OC2C(C)C2CC1(O)NC(=O)O2` (centres unmarked) [PDM-3-C20-benzylether, PDM-3-C20-benzyl ether], the “Antitumor activities B-16 (T/C %)” value in experiment [1] (25 μg/kg) came to 182%; in experiment [1] (50 μg/kg), 220%; in experiment [1] (100 μg/kg), 234%. In the experiment with Tetrahymena pyriformis W (setting [2]), the MIC is no more than 1 µg/mL.
As for `COC1C=CC=C(C)Cc2cc(OCC(=O)c3ccccc3)c(Cl)c(c2)N(C)C(=O)CC(OC(=O)C(C)C)C2(C)OC2C(C)C2CC1(O)NC(=O)O2` (centres unmarked) [PDM-3-C20-phenacylether, PDM-3-C20-phenacyl ether], the “Antitumor activities B-16 (T/C %)” value in experiment [1] (50 μg/kg) worked out at 188%; in experiment [1] (100 μg/kg), 176%; in experiment [1] (200 μg/kg), 211%; in experiment [1] (400 μg/kg) it was 203%.
